For this assay, the target named is T1, human TLR7 (Homo sapiens, UniProt Q9NYK1).
T1 sequence (Q9NYK1 27-1049): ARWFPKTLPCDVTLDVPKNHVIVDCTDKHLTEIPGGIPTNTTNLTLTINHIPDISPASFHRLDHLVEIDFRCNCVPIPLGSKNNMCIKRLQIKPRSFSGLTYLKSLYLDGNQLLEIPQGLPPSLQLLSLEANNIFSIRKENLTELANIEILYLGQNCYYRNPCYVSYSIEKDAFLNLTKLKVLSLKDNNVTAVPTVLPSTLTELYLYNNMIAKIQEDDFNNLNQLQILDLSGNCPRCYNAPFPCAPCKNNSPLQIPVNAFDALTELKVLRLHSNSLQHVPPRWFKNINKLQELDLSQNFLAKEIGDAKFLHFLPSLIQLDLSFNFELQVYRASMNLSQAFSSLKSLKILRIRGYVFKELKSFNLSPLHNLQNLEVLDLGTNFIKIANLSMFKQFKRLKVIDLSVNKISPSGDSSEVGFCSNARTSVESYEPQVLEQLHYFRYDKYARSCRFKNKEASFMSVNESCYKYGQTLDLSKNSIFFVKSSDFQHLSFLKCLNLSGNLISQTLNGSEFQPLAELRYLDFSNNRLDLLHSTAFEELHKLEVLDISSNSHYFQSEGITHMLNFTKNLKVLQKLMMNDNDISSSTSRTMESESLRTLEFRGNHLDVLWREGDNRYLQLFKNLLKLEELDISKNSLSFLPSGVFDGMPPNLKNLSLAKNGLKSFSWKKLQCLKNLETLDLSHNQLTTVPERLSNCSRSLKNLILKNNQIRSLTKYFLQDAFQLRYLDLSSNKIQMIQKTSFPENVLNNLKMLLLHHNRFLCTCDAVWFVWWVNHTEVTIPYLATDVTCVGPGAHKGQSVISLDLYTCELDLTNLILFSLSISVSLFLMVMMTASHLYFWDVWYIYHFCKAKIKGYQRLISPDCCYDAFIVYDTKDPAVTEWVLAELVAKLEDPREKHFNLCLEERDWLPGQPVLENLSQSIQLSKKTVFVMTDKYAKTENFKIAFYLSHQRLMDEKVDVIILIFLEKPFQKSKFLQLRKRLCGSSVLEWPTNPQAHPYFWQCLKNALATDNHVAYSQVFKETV
The assay can be described thus: HEK293-Blue-hTLR-7 cells assay (SEAP reporter, R848 stimulation). Conditions: HEK293-Blue-hTLR7 cells, R848 ligand, 20 h incubation. Format: cell-based. On the procedure:
The following tests were carried out in order to determine the activity of the compounds of formula (I) in HEK293-Blue-hTLR-7/8/9 cells assay.
HEK293-Blue-hTLR-7 Cells Assay:
A stable HEK293-Blue-hTLR-7 cell line was purchased from InvivoGen (Cat. #: hkb-htlr7, San Diego, Calif., USA). These cells were originally designed for studying the stimulation of human TLR7 by monitoring the activation of NF-κB. A SEAP (secreted embryonic alkaline phosphatase) reporter gene was placed under the control of the IFN-β minimal promoter fused to five NF-κB and AP-1-binding sites. The SEAP was induced by activating NF-κB and AP-1 via stimulating HEK-Blue hTLR7 cells with TLR7 ligands. Therefore the reporter expression was declined by TLR7 antagonist under the stimulation of a ligand, such as R848 (Resiquimod), for incubation of 20 h. The cell culture supernatant SEAP reporter activity was determined using QUANTI-Blue™ kit (Cat. #: rep-qb1, Invivogen, San Diego, Calif., USA) at a wavelength of 640 nm, a detection medium that turns purple or blue in the presence of alkaline phosphatase.
HEK293-Blue-hTLR7 cells were incubated at a density of 250,000˜450,000 cells/mL in a volume of 170 μL in a 96-well plate in Dulbecco's Modified Eagle's medium (DMEM) containing 4.5 g/L glucose, 50 U/mL penicillin, […], […], 2 mM L-glutamine, 10% (v/v) heat-inactivated fetal bovine serum with addition of 20 μL test compound in a serial dilution in the presence of final DMSO at 1% and 10 μL of 20 uM R848 in above DMEM, perform incubation under 37° C. in a CO2 incubator for 20 h. Then 20 μL of the supernatant from each well was incubated with 180 μL Quanti-blue substrate solution at 37° C. for 2 h and the absorbance was read at 620-655 nm using a spectrophotometer. The signalling pathway that TLR7 activation leads to downstream NF-κB activation has been widely accepted, and therefore similar reporter assay was modified for evaluating TLR7 antagonist.

`C[C@@H]1CN(c2ccc(C#N)c3ncccc23)C[C@H](C2=Nc3cccc(N4CCNCC4)c3CN2)O1` [Example 6, 5-[(2R,6R)-2-methyl-6-(5-piperazin-1-yl-3,4-dihydroquinazolin-2-yl)morpholin-4-yl]quinoline-8-carbonitrile]: it took 40 nM to reach half-maximal inhibition (IC50).

`C[C@@H]1CN(c2ccc(C#N)c3ncccc23)C[C@H](C2=Nc3ccc(N4CCNCC4)cc3CN2)O1` [Example 7, 5-[(2R,6R)-2-methyl-6-(6-piperazin-1-yl-3,4-dihydroquinazolin-2-yl)morpholin-4-yl]quinoline-8-carbonitrile] yielded an IC50 of 12 nM.

Compound `C[C@@H]1CN(c2ccc(C#N)c3ncccc23)C[C@H](C2=Nc3cc(N4CCNCC4)ccc3CN2)O1` [Example 8, 5-[(2R,6R)-2-methyl-6-(7-piperazin-1-yl-3,4-dihydroquinazolin-2-yl)morpholin-4-yl]quinoline-8-carbonitrile] had an IC50 of 18 nM.

On to `C[C@@H]1CN(c2ccc(C#N)c3ncccc23)C[C@H](C2=Nc3c(cccc3N3CCNCC3)CN2)O1` [Example 9, 5-[(2R,6R)-2-methyl-6-(8-piperazin-1-yl-3,4-dihydroquinazolin-2-yl)morpholin-4-yl]quinoline-8-carbonitrile], for which the IC50 came to 36 nM.

`C[C@@H]1CN(c2ccc(C#N)c3ncccc23)C[C@H](C2=Nc3cccc(N4CCN(C)CC4)c3CN2)O1` [Example 12, 5-[(2R,6R)-2-methyl-6-[5-(4-methylpiperazin-1-yl)-3,4-dihydroquinazolin-2-yl]morpholin-4-yl]quinoline-8-carbonitrile]: the IC50 is 83 nM.

Take `C[C@@H]1CN(c2ccc(C#N)c3ncccc23)C[C@H](C2=Nc3cccc(N4CCC5(CCNC5)C4)c3CN2)O1` (stereo partly drawn) [Example 13, 5-[(2R,6R)-2-[5-(2,7-diazaspiro[4.4]nonan-2-yl)-3,4-dihydroquinazolin-2-yl]-6-methyl-morpholin-4-yl]quinoline-8-carbonitrile]: the midpoint of inhibition, the IC50, lay at 294 nM.

`C[C@@H]1CN(c2ccc(C#N)c3ncccc23)C[C@H](C2=Nc3cccc(C4=CCNCC4)c3CCN2)O1` [Example 16, 5-[(2R,6R)-2-methyl-6-[6-(1,2,3,6-tetrahydropyridin-4-yl)-4,5-dihydro-3H-1,3-benzodiazepin-2-yl]morpholin-4-yl]quinoline-8-carbonitrile] had an IC50 of 251 nM.

`C[C@@H]1CN(c2ccc(C#N)c3ncccc23)C[C@H](C2=Nc3ccc(N4CCNCC4)cc3CCN2)O1` [Example 17, 5-[(2R,6R)-2-methyl-6-(7-piperazin-1-yl-4,5-dihydro-3H-1,3-benzodiazepin-2-yl)morpholin-4-yl]quinoline-8-carbonitrile] registered a concentration for half-maximal inhibition (IC50) of 362 nM.

With `C[C@@H]1CN(c2ccc(C#N)c3ncccc23)C[C@H](C2=Nc3cccc(C4CCNCC4)c3CN2)O1` [Example 18, 5-[(2R,6R)-2-methyl-6-[5-(4-piperidyl)-3,4-dihydroquinazolin-2-yl]morpholin-4-yl]quinoline-8-carbonitrile], the IC50 is 130 nM.

As a reminder, the IC50 is the concentration that inhibits the measured activity by half. A high value points to weaker potency in that assay.

(Values after US11548884B2, “Cyclic amidine compounds for the treatment of autoimmune disease” (Hoffmann-La Roche Inc., priority 2018, dated 2023).)
